{
  "source": "patent US8846627B2",
  "about": "“Method for treatment of malaria” (The Second Military Medical University, priority 2009, dated 2014)",
  "key": {"[1]": {"test_system": "chloroquine sensitive (D6) strain of P. falciparum", "assay": "In vitro anti-malarial activity assay (plasmodial LDH activity), D6 clone", "type": "cell-based", "conditions": "Plasmodium falciparum, D6; 72 h incubation, LDH readout; read-out: P. falciparum (D6 Clone) IC50", "method": "(§1) In vitro anti-malarial activity of the representative compounds was determined against chloroquine sensitive (D6) and chloroquine-resistant (W2) strains of P. falciparum.\n(§2) The anti-malarial activity was determined by measuring plasmodial LDH activity as described earlier (Jain, M.; Khan, S. I.; Tekwani, B. L.; Jacob, M. R.; Singh, S.; Singh, P. P.; Jain, R. Synthesis, anti-malarial, antileishmanial, and antimicrobial activities of some 8-quinolinamine analogues. Bioorg. Med. Chem. 2005, 13, 4458-4466). A suspension of red blood cells infected with D6 or W2 strains of P. falciparum (200 with 2% parasitemia and 2% hematocrit in RPMI 1640 medium supplemented with 10% human serum and 60 µg/mL Amikacin) was added to the wells of a 96-well plate containing 10 μL of serially diluted test samples. The plate was flushed with a gas mixture of 90% N2, 5% O2, and 5% CO2 and incubated at 37° C. for 72 h in a modular incubation chamber (Billups-Rothenberg, Calif.). Parasitic LDH activity was determined by using Malstat™ reagent (Flow Inc., Portland, Oreg.) according to the procedure of Makler and Hinrichs (M. T. Makler and D. J. Hinrichs, Measurement of the lactate dehydrogenase activity of Plasmodium falciparum as an assessment of parasitemia. J. Am. J. Trop. Med. Hyg. 1993, 48(2):205-210). Briefly, 20 μl, of the incubation mixture was mixed with 100 μL of the Malstat™ reagent and incubated at room temperature for 30 min Twenty microliters of a 1:1 mixture of NBT/PES (Sigma, St. Louis, Mo.) was then added and the plate was further incubated in the dark for 1 h. The reaction was then stopped by the addition of 100 μL of a 5% acetic acid solution. The plate was read at 650 nm. Artemisinin and chloroquine were included in each assay as the drug controls. IC50 values were computed from the dose-response curves. To determine the selectivity index of anti-malarial activity of compounds, their cytotoxicity in vitro to mammalian cells was also determined. The assay was performed in 96-well tissue culture-treated plates as described earlier (J. Mustafa, S. I. Khan, G. Ma, L. A. Walker and I. A. Khan, Synthesis and Anticancer Activities of Fatty Acid Analogs of Podophyllotoxin. Lipids. 2004, 39(2):167-172). Vero cells (monkey kidney fibroblasts) were seeded to the wells of 96-well plate at a density of 25,000 cells/well and incubated for 24 h. Samples at different concentrations were added and plates were again incubated for 48 h. The number of viable cells was determined by Neutral Red assay. IC50 values were obtained from dose-response curves. Doxorubicin was used as a positive control."}, "[2]": {"test_system": "chloroquine-resistant (W2) strain of P. falciparum", "assay": "In vitro anti-malarial activity assay (plasmodial LDH activity), W2 clone", "type": "cell-based", "conditions": "Plasmodium falciparum, W2; 72 h incubation, LDH readout; read-out: P. falciparum (W2 Clone) IC50", "method": "as §1, §2"}},
  "data": [
    {"smiles": "O=C(/C=C/c1ccc(O)cc1)OC[C@H]1O[C@@H](Oc2c(-c3ccc(O)cc3)oc3cc(O)cc(O)c3c2=O)[C@H](O)[C@@H](O)[C@@H]1O", "note": "[Tiliroside]", "values": [
      {"measurement": "IC50", "setting": "[1]", "result": 123, "unit": "µM"},
      {"measurement": "IC50", "setting": "[2]", "result": 106, "unit": "µM"}
    ]}
  ]
}
